In ChEMBL document CHEMBL1201862, “PubChem BioAssay data set” (2004):
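All cell lines were grown in 96-well plates and treated with compound for 48 hours. GI50 is the concentration that inhibits growth by half.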 Calls of active or inactive are those of the source. No stated cut-off is given here; in the data, active = GI50 up to about 1.1 µM and inactive = higher.

Tests used:
Test in all cases: inhibition of tumour cell growth, NCI panel, 48 h
786-0 = tested on: 786-0
A498 = tested on: A498
ACHN = tested on: ACHN
COLO 205 = tested on: COLO 205
EKVX = tested on: EKVX
HOP-62 = tested on: HOP-62
HT-29 = tested on: HT-29
K562 = tested on: K562
MOLT-4 = tested on: MOLT-4
Malme-3M = tested on: Malme-3M
NCI-H460 = tested on: NCI-H460
OVCAR-3 = tested on: OVCAR-3
OVCAR-5 = tested on: OVCAR-5
PC-3 = tested on: PC-3
U-251 = tested on: U-251
UACC-257 = tested on: UACC-257
UACC-62 = tested on: UACC-62
UO-31 = tested on: UO-31
NCI-H226 = tested on: NCI-H226
SK-OV-3 = tested on: SK-OV-3

Measured: GI50

CS/C1=C(\c2ccc(C)cc2)N(c2ccccc2)C(=O)C(=O)N(c2ccccc2)/C(c2ccc(C)cc2)=C(/SC)SS1
inactive: 786-0 > 100 µM | A498 50.5 µM | ACHN > 100 µM | COLO 205 > 100 µM | EKVX > 100 µM | HOP-62 > 100 µM | HT-29 > 100 µM | K562 > 100 µM | MOLT-4 > 100 µM | Malme-3M > 100 µM | NCI-H460 > 100 µM | OVCAR-3 > 100 µM | OVCAR-5 > 100 µM | PC-3 > 100 µM | U-251 > 100 µM | UACC-257 > 100 µM | UACC-62 > 100 µM | UO-31 > 100 µM

O=C1O[C@H](c2ccc3c(c2)OCO3)[C@H]2CO[C@@H](c3ccc4c(c3)OCO4)[C@@H]12
inactive: 786-0 > 100 µM | ACHN > 100 µM | COLO 205 85.5 µM | EKVX > 100 µM | HOP-62 > 100 µM | HT-29 77.6 µM | K562 60.1 µM | MOLT-4 43.5 µM | Malme-3M > 100 µM | NCI-H226 > 100 µM | NCI-H460 > 100 µM | OVCAR-5 > 100 µM | PC-3 > 100 µM | SK-OV-3 > 100 µM | U-251 > 100 µM | UACC-257 54.6 µM | UACC-62 88.5 µM | UO-31 > 100 µM

Nc1ccc(N)c2c1C(=O)c1ccccc1C2=O
inactive: 786-0 78.7 µM | A498 7.35 µM | ACHN 4.66 µM | COLO 205 17.8 µM | EKVX 87.5 µM | HOP-62 5.01 µM | HT-29 57.9 µM | K562 27.6 µM | MOLT-4 13.4 µM | Malme-3M 24 µM | NCI-H226 > 100 µM | NCI-H460 9.51 µM | OVCAR-3 43.9 µM | OVCAR-5 > 100 µM | SK-OV-3 2.49 µM | U-251 17.3 µM | UACC-257 > 100 µM | UACC-62 15.7 µM | UO-31 12.4 µM

CCOC(=O)C(O)(NC(C)=O)C(F)(F)F (stereo not given)
inactive: ACHN > 100 µM | COLO 205 > 100 µM | EKVX > 100 µM | HOP-62 > 100 µM | HT-29 > 100 µM | K562 > 100 µM | MOLT-4 > 100 µM | Malme-3M > 100 µM | NCI-H226 > 100 µM | OVCAR-3 > 100 µM | OVCAR-5 > 100 µM | PC-3 > 100 µM | SK-OV-3 > 100 µM | U-251 > 100 µM | UACC-257 > 100 µM | UACC-62 > 100 µM | UO-31 > 100 µM

COc1ccc(-c2c(C(C)=O)c(C)n(C3OC(CO)C(O)C(O)C3O)c(=S)c2C#N)cc1 (stereo not given)
inactive: ACHN 80.2 µM | COLO 205 > 100 µM | EKVX 55.1 µM | HOP-62 > 100 µM | HT-29 > 100 µM | K562 37.8 µM | MOLT-4 27.7 µM | Malme-3M 70.5 µM | NCI-H460 > 100 µM | OVCAR-3 > 100 µM | OVCAR-5 > 100 µM | PC-3 47 µM | SK-OV-3 > 100 µM | U-251 47 µM | UACC-257 > 100 µM | UACC-62 28 µM | UO-31 > 100 µM

Cc1ccc(-c2n[nH]c(=O)n2N2C(=O)c3ccccc3C2=O)cc1
inactive: 786-0 > 100 µM | ACHN > 100 µM | HOP-62 > 100 µM | HT-29 > 100 µM | K562 > 100 µM | MOLT-4 > 100 µM | Malme-3M > 100 µM | NCI-H226 > 100 µM | NCI-H460 > 100 µM | OVCAR-3 > 100 µM | OVCAR-5 > 100 µM | PC-3 > 100 µM | U-251 > 100 µM | UACC-257 > 100 µM | UACC-62 > 100 µM | UO-31 > 100 µM

Cc1cc(O)c(C(=O)CC2(O)C(=O)Nc3c(Cl)cc(Cl)cc32)c(=O)o1 (stereo not given)
inactive: 786-0 > 100 µM | A498 > 100 µM | ACHN > 100 µM | COLO 205 > 100 µM | EKVX > 100 µM | HOP-62 > 100 µM | HT-29 > 100 µM | K562 > 100 µM | MOLT-4 > 100 µM | Malme-3M > 100 µM | NCI-H226 88.1 µM | NCI-H460 > 100 µM | OVCAR-3 > 100 µM | OVCAR-5 > 100 µM | SK-OV-3 > 100 µM | U-251 > 100 µM | UACC-257 > 100 µM | UACC-62 > 100 µM | UO-31 > 100 µM

CCOP(=O)(OCC)C(C)(CC)N/C(N)=N/C#N (stereo not given)
inactive: 786-0 > 100 µM | ACHN > 100 µM | COLO 205 > 100 µM | EKVX > 100 µM | HOP-62 > 100 µM | HT-29 > 100 µM | K562 > 100 µM | MOLT-4 > 100 µM | Malme-3M > 100 µM | NCI-H226 > 100 µM | NCI-H460 > 100 µM | OVCAR-3 > 100 µM | OVCAR-5 > 100 µM | PC-3 > 100 µM | SK-OV-3 > 100 µM | U-251 > 100 µM | UACC-257 > 100 µM | UACC-62 > 100 µM | UO-31 > 100 µM

O=c1c2cc([N+](=O)[O-])ccc2sc2ccsc12
inactive: 786-0 > 100 µM | A498 > 100 µM | ACHN > 100 µM | COLO 205 > 100 µM | EKVX > 100 µM | HOP-62 > 100 µM | HT-29 > 100 µM | K562 > 100 µM | MOLT-4 > 100 µM | Malme-3M > 100 µM | NCI-H226 > 100 µM | NCI-H460 > 100 µM | OVCAR-3 > 100 µM | OVCAR-5 > 100 µM | SK-OV-3 > 100 µM | U-251 > 100 µM | UACC-257 > 100 µM | UACC-62 > 100 µM | UO-31 > 100 µM

CC1=C(C(=O)NCc2ccccc2)C(c2ccc(N(C)C)cc2)C(C(=O)NCc2ccccc2)=C(C)N1
inactive: 786-0 > 100 µM | A498 > 100 µM | ACHN > 100 µM | COLO 205 > 100 µM | EKVX > 100 µM | HOP-62 > 100 µM | HT-29 > 100 µM | K562 > 100 µM | MOLT-4 > 100 µM | Malme-3M > 100 µM | NCI-H226 > 100 µM | NCI-H460 > 100 µM | OVCAR-3 > 100 µM | OVCAR-5 > 100 µM | SK-OV-3 > 100 µM | U-251 > 100 µM | UACC-257 > 100 µM | UACC-62 > 100 µM | UO-31 > 100 µM

N=C1NC(c2ccc(Cl)cc2)=CC(c2cccc(Cl)c2)S1 (stereo not given)
inactive: 786-0 36.1 µM | ACHN 24.4 µM | COLO 205 16.4 µM | EKVX 25.4 µM | HOP-62 38.7 µM | HT-29 30.8 µM | K562 34.3 µM | MOLT-4 37.4 µM | Malme-3M 38 µM | NCI-H226 26.7 µM | NCI-H460 26.4 µM | OVCAR-3 41.7 µM | OVCAR-5 66.8 µM | PC-3 28.2 µM | SK-OV-3 36.3 µM | U-251 22.4 µM | UACC-257 25.2 µM | UACC-62 18.8 µM | UO-31 29 µM
